Measured values reported in patent EP4748837A1, “AROMATIC AMIDE DERIVATIVE, AND PREPARATION METHOD THEREFOR AND USE THEREOF” (Zhejiang Hisun Pharmaceutical Co., Ltd., priority 2023, dated 2025).

Assays:
OVCAR-3 cells = assay: Inhibition of OVCAR-3 cell proliferation (CellTiter-Glo cell viability); type: cell-based; conditions: Homo sapiens; OVCAR-3 cells (TP53 R248Q mutation), 72 hours culture with compound; read-out: IC50
Protocol: (§1) Influences of the compounds of the present invention on OVCAR-3 cell proliferation were determined by the following method. OVCAR-3 cells (containing TP53 R248Q mutation) were purchased from the Cell Bank of Shanghai Institute of Biochemistry and Cell Biology, Chinese Academy of Sciences, and cultured in an RPMI 1640 culture medium containing 10% fetal bovine serum, 100 U penicillin and 100 µg/mL streptomycin. A cell viability was determined by a CellTiter-Glo® Luminescent Cell Viability Assay kit (Promega, article number G7573).
(§2) An experimental method was operated according to steps in the instruction of the kit, which was briefly described as follows: a test compound was dissolved in DMSO first to prepare a 10 mM stock solution, then the stock solution was diluted with the culture medium to prepare a test sample, and a final concentration of the compound was in a range of 1000 nM-0.015 nM. Cells in a logarithmic growth phase were inoculated into a 96-well cell culture plate at a density of 1000 cells per well, cultured in a 5% CO2 incubator at 37°C overnight, and then the test compound was added to continuously culture for 72 hours. After the culture was ended, 50 uL of CellTiter-Glo detection solution was added to each well , shaken for 5 minutes, and then allowed to stand for 10 minutes, and subsequently, a luminance value of each well of the sample was read by a microplate reader in a Luminescence mode. By comparing with the numerical value of a control group (0.3% DMSO), a percentage inhibition rate of the compound at each concentration point was calculated, and then nonlinear regression analysis was carried out based on concentration logarithm-inhibition rate of the compound in GraphPad Prism 5 software, so as to obtain an IC50 value of the compound for inhibiting the cell proliferation, which was as shown in Table 1. Table 1 IC50 data of the compounds of the present invention for inhibiting OVCAR-3 cell proliferation

HT-29 cells = assay: Inhibition of HT-29 cell proliferation (CellTiter-Glo cell viability); type: cell-based; conditions: Homo sapiens; HT-29 cells (TP53 R273H mutation), 120 hours culture with compound; read-out: IC50
Protocol: as §1, with “HT-29” for “OVCAR-3”, “R273H” for “R248Q”, “a McCOY's 5A” for “an RPMI 1640”
as §2, with “for 120” for “for 72”, “each well,” for “each well ,”, “Table 2.” for “Table 1.”, “Table 2” for “Table 1”, “inhibiting HT-29” for “inhibiting OVCAR-3”

| IC50 (OVCAR-3 cells) [nM] | IC50 (HT-29 cells) [nM] | Structure (SMILES) |
| --- | --- | --- |
| 16.5 | 10.2 | CCS(=O)(=O)Nc1ccc(C(=O)Nc2ccc(C(N)=O)c(N3CCC(F)(F)CC3)c2)c(N2CCC3(CC2)CC3)c1 [Example 1, N-(4-carbamoyl-3-(4,4-difluor opiperidin-1-yl)phenyl)-4-(ethylsulfonamido)-2-(6-azaspiro[2.5]octan-6-yl)benzamide] |
| 33.1 |  | CCS(=O)(=O)Nc1ccc(C(=O)Nc2ccc(C(C)=O)c(N3CCC(F)(F)CC3)c2)c(N2CCC3(CC2)CC3)c1 [Example 5, N-(4-acetyl-3-(4,4-difluoropiperidin-1-yl)phenyl)-4-(ethylsulfonamido)-2-(6-azaspiro[2.5]octan-6-yl)benzamide] |
| 11.1 | 13.3 | CCS(=O)(=O)Nc1ccc(C(=O)Nc2ccc(CO)c(N3CCC(F)(F)CC3)c2)c(N2CCC3(CC2)CC3)c1 [Example 6, N-(3-(4,4-difluoropiperidin-1-yl)-4-(hydroxymethyl)phenyl)-4-(ethylsulfonamido)-2-(6-azaspiro[2.5]octan-6-yl)benzamide] |
| 38.9 |  | CCS(=O)(=O)Nc1ccc(C(=O)Nc2ccc(-c3ncn(C)n3)c(NC3CC(F)(F)C3)c2)c(N2CCC3(CC2)CC3)c1 [Example 54, N-(3-((3,3-difluorocyclobutyl)amino)-4-(1-methyl-1H-1,2,4-triazol-3-yl)phenyl)-4-(ethylsulfonamido)-2-(6-azaspiro[2.5]octan-6-yl)benzamide] |
| 8.7 | 4.5 | [2H]C([2H])([2H])Oc1ccc(NC(=O)c2ccc(NS(=O)(=O)CC)cc2N2CCC3(CC2)CC3)cc1N1CCC(F)(F)CC1 [Example 57, N-(3-(4,4-difluoropiperidin-1-yl)-4-(methoxy-d3)phenyl)-4-(ethylsulfonamido)-2-(6-azaspiro[2.5]octan-6-yl)benzamide] |
| 27.1 |  | CCS(=O)(=O)Nc1ccc(C(=O)Nc2ccc(-c3ncnn3C)c(N3CCC(F)(F)CC3)c2)c(N2CCC3(CC2)CC3)c1 [Example 38, N-(3-(4,4-difluoropiperidin-1-yl)-4-(1-methyl-1H-1,2,4-triazol-5-yl)phenyl)-4-(ethylsulfon amido)-2-(6-azaspiro[2.5]octan-6-yl)benzamide] |
| 18.9 |  | CCS(=O)(=O)Nc1ccc(C(=O)Nc2ccc(C(=O)N(C)C)c(N3CCC(F)(F)CC3)c2)c(N2CCC3(CC2)CC3)c1 [Example 4, 2-(4,4-difluoropiperidin-1-yl)-4-(4-(ethylsulfonamido)-2-(6-azaspiro[2.5]octan-6-yl)benzamido)-N,N-dimethylbenzamide] |
| 15.2 | 14.5 | CCS(=O)(=O)Nc1ccc(C(=O)Nc2ccc(-c3cccnc3)c(N3CCC(F)(F)CC3)c2)c(N2CCC3(CC2)CC3)c1 [Example 9, N-(3-(4,4-difluoropiperidin-1-yl)-4-(pyridin-3-yl)phenyl)-4-(ethylsulfonamido)-2-(6-azaspiro[2.5]octan-6-yl)benzamide] |
| 3.7 | 4 | CCS(=O)(=O)Nc1ccc(C(=O)Nc2ccc(C(=O)NC)c(N3CCC(F)(F)CC3)c2)c(N2CCC3(CC2)CC3)c1 [Example 3, 2-(4,4-difluoropiperidin-1-yl)-4-(4-(ethylsulfonamido)-2-(6-azaspiro[2.5]octan-6-yl)benzamido)-N-methylbenzamide] |
| 17.3 | 27.1 | CCS(=O)(=O)Nc1ccc(C(=O)Nc2ccc(-c3ccccn3)c(N3CCC(F)(F)CC3)c2)c(N2CCC3(CC2)CC3)c1 [Example 10, N-(3-(4,4-difluoropiperidin-1-yl)-4-(pyridin-2-yl)phenyl)-4-(ethylsulfonamido)-2-(6-azaspiro[2.5]octan-6-yl)benzamide] |
| 11.1 | 6.2 | CCS(=O)(=O)Nc1ccc(C(=O)Nc2ccc(-c3nnn(C)n3)c(N3CCC(F)(F)CC3)c2)c(N2CCC3(CC2)CC3)c1 [Example 35, N-(3-(4,4-difluoropiperidin-1-yl)-4-(2-methyl-2H-tetrazol-5-yl)phenyl)-4-(ethylsulfonamido)-2-(6-azaspiro[2.5]octan-6-y 1)benzamide] |
| 19.9 | 16.8 | CCS(=O)(=O)Nc1ccc(C(=O)Nc2ccc(-n3ccnc3)c(C3=CCC(F)(F)CC3)c2)c(N2CCC3(CC2)CC3)c1 [Example 22, N-(4',4'-difluoro-6-(1H-imidazol-1-yl)-2',3',4',5'-tetrahydro-[1,1'-biphenyl]-3-yl)-4-(ethylsulfonamido)-2-(6-azaspiro[2. 5]octan-6-yl)benzamide] |
| 6 | 8.2 | CCS(=O)(=O)Nc1ccc(C(=O)Nc2ccc(-c3nnco3)c(N3CCC(F)(F)CC3)c2)c(N2CCC3(CC2)CC3)c1 [Example 40, N-(3-(4,4-difluoropiperidin-1-yl)-4-(1,3,4-oxadiazol-2-yl)phenyl)-4-(ethylsulfonamido)-2-(6-azaspiro[2.5]octan-6-yl)benz amide] |
| 11.1 | 9.3 | CCS(=O)(=O)Nc1ccc(C(=O)Nc2ccc(-c3ccon3)c(N3CCC(F)(F)CC3)c2)c(N2CCC3(CC2)CC3)c1 [Example 36, N-(3-(4,4-difluoropiperidin-1-yl)-4-(isoxazol-3-yl)phenyl)-4-(ethylsulfonamido)-2-(6-azaspiro[2.5]octan-6-yl)benzamide] |
| 44.7 |  | CCS(=O)(=O)Nc1ccc(C(=O)Nc2ccc(Oc3ccccn3)c(N3CCC(F)(F)CC3)c2)c(N2CCC3(CC2)CC3)c1 [Example 55, N-(3-(4,4-difluoropiperidin-1-yl)-4-(pyridin-2-yloxy)phenyl) -4-(ethylsulfonamido)-2-(6-azaspiro[2.5]octan-6-yl)benzamide] |
| 5.9 | 4.7 | O=C(Nc1ccc(-n2ccnn2)c(N2CCC(F)(F)CC2)c1)c1ccc(NS(=O)(=O)C2CC2)cc1N1CCC2(CC1)CC2 [Example 32, 4-(cyclopropanesulfonamido)-N-(3-(4,4-difluoropiperidin-1-yl)-4-(1H-1,2,3-triazol-1-yl)phenyl)-2-(6-azaspiro[2.5]octan-6-yl)benzamide] |
| 21.2 |  | CCS(=O)(=O)Nc1ccc(C(=O)Nc2ccc(-c3ccncc3)c(N3CCC(F)(F)CC3)c2)c(N2CCC3(CC2)CC3)c1 [Example 8, N-(3-(4,4-difluoropiperidin-1-yl)-4-(pyridin-4-yl)phenyl)-4-(ethylsulfonamido)-2-(6-azaspiro[2.5]octan-6-yl)benzamide] |
| 11.1 | 18.3 | CCS(=O)(=O)Nc1ccc(C(=O)Nc2ccc(-c3ncco3)c(N3CCC(F)(F)CC3)c2)c(N2CCC3(CC2)CC3)c1 [Example 7, N-(3-(4,4-difluoropiperidin-1-yl)-4-(oxazol-2-yl)phenyl)-4-(ethylsulfonamido)-2-(6-azaspiro[2.5]octan-6-yl)benzamide] |
| 17.7 | 16.3 | CCS(=O)(=O)Nc1ccc(C(=O)Nc2ccc(-c3cnccn3)c(N3CCC(F)(F)CC3)c2)c(N2CCC3(CC2)CC3)c1 [Example 11, N-(3-(4,4-difluoropiperidin-1-yl)-4-(pyrazin-2-yl)phenyl)-4-(ethylsulfonamido)-2-(6-azaspiro[2.5]octan-6-yl)benzamide] |

| Structure (SMILES) | IC50 (OVCAR-3 cells) [nM] | IC50 (HT-29 cells) [nM] |
| --- | --- | --- |
| CCS(=O)(=O)Nc1ccc(C(=O)Nc2ccc(-n3ccnc3)c(OC3CC(F)(F)C3)c2)c(N2CCC3(CC2)CC3)c1 [Example 24, N-(3-(3,3-difluorocyclobutoxy)-4-(1H-imidazol-1-yl)phenyl) -4-(ethylsulfonamido)-2-(6-azaspiro[2.5]octan-6-yl)benzamide] | 17.6 |  |
| CCS(=O)(=O)Nc1ccc(C(=O)Nc2ccc(-c3ncco3)c(OC3CC(F)(F)C3)c2)c(N2CCC3(CC2)CC3)c1 [Example 23, N-(3-(3,3-difluorocyclobutoxy)-4-(oxazol-2-yl)phenyl)-4-(ethylsulfonamido)-2-(6-azaspiro [2.5]octan-6-yl)benzamide] | 51.3 |  |
